Test results as given in patent US4063025A, “4-Substituted amino-α-aminomethylbenzyl alcohol derivatives” (Yamanouchi Pharmaceutical Co., Ltd., priority 1975, dated 1977).
Where a name gives a salt, the structure may show the parent alone. Read-outs that look alike come from different tables or passages of the source.

Columns and labels:
[1] = test system: guinea pig; test: Anti asthmatic activity: protection from histamine-induced asthmatic dyspnea, subcutaneous (Parker et al.); format: in vivo; conditions: Cavia porcellus, sc, 0.5 h, read-out: anti-asthmatic activity ED50
Method: The experiments were carried out according to the method of Parker et al., (J. Pharmacol. Exptl. Therap., 118, 359-364 (1956)). A guinea pig was placed in a 11 liters glass chamber and exposed to the spasmogen by means of a nebulizer. […] Samples were administered subcutaneously to animals 30 min. prior the application of the spasmogen.
ED50 was calculated by the method of Litchfield-Wilcoxon (J. Pharmacol. Exptl. Therap., 96, 99-113 (1949) using 4-8 groups and one group consists of 4-8 of guinea pig.

[2] = target: T1, β2 (Canis lupus familiaris, UniProt P54833); test: Bronchodilator activity, β2 action: histamine-induced increase in bronchial resistance, intraduodenal (Konzett and Rossler); format: in vivo, Mongorel dogs; conditions: dog, anesthetized dogs, histamine dihydrochloride 10 μg/Kg i.v., peak effect, read-out: β2 action i.d. ED50
T1 construct: from tissue; host or cells: airways of anesthetized mongrel dogs, in vivo
Method: a. Bronchodilator activity, B2 action
The experiments were carried out according to the method of Konzett and Rossler (Arch. exp. Path. Pharmakol., 195, 11-14 (1940)). Mongorel dogs were anesthetized with pentobarbital Na. Temporary increase in bronchial resistance, measured with transducer connected to a polygraph, were produced by histamine dihydrochloride, 10 μg/Kg injected rapidly intravenously at intervals of 30 min. The test samples were injected intraduodenally and the time-course of antihistamine activity of the sample (the inhibition rate (%) against the control) was obtained.
ED50 (μg/Kg) values of β-agonists were obtained from the dose response curve drawn according to the peak effect on each dose.

[3] = test system: β1; test: Action on heart rate, β1 action, intraduodenal; format: in vivo, Mongorel dogs
Method: b. Action on heartrate, β1 action.
Mongorel dogs were anesthetized with pentobarbital Na. Heart rate (HR) was recorded on polygraph. […] The time-course of ΔHR (the increased HR against the control) was obtained.
The dose response curve drawn according to the peak response on each dose and the ED25 beats/min. (μg/Kg), that is the dose of the sample producing 25 beats/min. increase in heart rate was obtained from the curve.

[4] = test system: β1 /β2; test: Broncho-selectivity (ratio of β1/β2); format: in vivo, Mongorel dogs; conditions: intraduodenal, anesthetized dogs; from ED25 heart rate and ED50 bronchodilator
From the text: The broncho-selectivity was obtained by the following equation. [formula]

[5] = cited from earlier work
[6] = subcutaneous, 30 min. prior to spasmogen (0.1% histamine dihydrochloride spray), guinea pig

T1 sequence (P54833 whole entry): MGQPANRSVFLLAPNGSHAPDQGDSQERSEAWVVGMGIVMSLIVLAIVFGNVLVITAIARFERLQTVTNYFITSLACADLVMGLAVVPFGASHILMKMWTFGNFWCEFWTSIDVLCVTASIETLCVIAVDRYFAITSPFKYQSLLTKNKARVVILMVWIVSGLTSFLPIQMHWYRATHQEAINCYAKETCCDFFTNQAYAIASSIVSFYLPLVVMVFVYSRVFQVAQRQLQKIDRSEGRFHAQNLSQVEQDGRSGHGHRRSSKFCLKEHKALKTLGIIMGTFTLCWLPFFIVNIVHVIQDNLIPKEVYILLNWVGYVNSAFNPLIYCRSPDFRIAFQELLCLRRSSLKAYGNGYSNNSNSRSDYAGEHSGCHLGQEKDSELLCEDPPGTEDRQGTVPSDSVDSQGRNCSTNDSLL

`COC(=O)Nc1ccc(C(O)CNC(C)(C)C)cc1Cl` (stereo not drawn) [Ex. 23, 3-chloro-4-methoxycarbonylamino-α-(N-tert-butylaminomethyl)benzyl alcohol] showed an ED50 [1, 6] of 0.063 to 0.125 mg/kg.
In the case of `CCOC(=O)Nc1c(Cl)cc(C(O)CNC(C)(C)C)cc1Cl.Cl` (stereo not drawn) [Ex. 10, 3,5-dichloro-4-ethoxycarbonylamino-α-(tert-butylaminomethyl)-benzyl alcohol hydrochloride], the ED50 [2] was 4.5 µg/kg, the “β1 action i.d. ED25 beats/min” value ([3]; dog, in vivo) was 19.5 µg/kg and the “broncho-selectivity (Ratio of β1 /β2)” value [4] was 4.3.
With `COCCOC(=O)Nc1c(Cl)cc(C(O)CNC(C)(C)C)cc1Cl` (stereo not drawn) [Ex. 14, 3,5-dichloro-4-(2-methoxyethoxy)carbonylamino-α-(tert-butylaminomethyl)benzyl alcohol hydrochloride] the ED50 [1, 6] was 0.032 mg/kg.
Work on `CC(C)OC(=O)Nc1c(Cl)cc(C(O)CNC(C)(C)C)cc1Cl` (stereo not drawn) [Ex. 12, 3,5-dichloro-4-isopropoxycarbonylamino-α-(tert-butylaminomethyl)benzyl alcohol] yielded an ED50 [1, 6] of 0.032 mg/kg.
With `CCNc1c(Cl)cc(C(O)CNC(C)(C)C)cc1Cl.Cl` (stereo not drawn) [Ex. 6, 3,5-dichloro-4-ethylamino-α-(tert-butylaminomethyl)-benzyl alcohol mono-hydrochloride] the ED50 [1] was 0.125 to 0.25 mg/kg.
With `CC(C)(C)NCC(O)c1cc(Cl)c(N)c(Cl)c1` (stereo not drawn) [NAB 365, 1-(4-amino-3,5-dichlorophenyl)-2-tert-butylamino ethanol, reference compound] the ED50 [1] was 0.49 mg/kg, the ED50 [2] was 12.3 µg/kg and the “β1 action i.d. ED25 beats/min” value ([3]; intraduodenal, anesthetized dogs, dose producing 25 beats/min. increase in heart rate) was 5.7 µg/kg. For the same molecule, the “broncho-selectivity (Ratio of β1 /β2)” value [4] was 0.46, the “bronchodilator activity by oral administration” value ([5]; in words) was “strong bronchodilator activity” and the “bronchodilator activity, times stronger than Isoproterenol” value ([5]; oral administration, versus Isoproterenol) was “about 500 times”. For the same molecule, the “bronchodilator activity, times stronger than Salbutamol” value ([5]; oral administration, versus Salbutamol) was “about 100 times”.
In the case of `COC(=O)Nc1c(Br)cc(C(O)CNC(C)(C)C)cc1Br` (stereo not drawn) [Ex. 8, 3,5-dibromo-4-methoxycarbonylamino-α-(tert-butylaminomethyl)benzyl alcohol], the ED50 [1, 6] was 0.125 mg/kg.
Molecule `CC(C)(C)NCC(O)c1cc(Cl)c(NC(=O)OCc2ccccc2)c(Cl)c1.Cl` (stereo not drawn) [Ex. 13, 3,5-dichloro-4-benzyloxycarbonylamino-α-(tert-butylaminomethyl)benzyl alcohol hydrochloride] has an ED50 [1, 6] of 0.125 mg/kg.
Work on `CNC(=O)Nc1c(Cl)cc(C(O)CNC(C)(C)C)cc1Cl` (stereo not drawn) [Ex. 15, 3,5-dichloro-4-methylcarbamoylamino-α-(tert-butylaminomethyl)benzyl alcohol] yielded an ED50 [1, 6] of 0.125 to 0.25 mg/kg.
Molecule `COC(=O)Nc1c(Cl)cc(C(O)CNC(C)(C)C)cc1Br` (stereo not drawn) [Ex. 18, 3-bromo-5-chloro-4-methoxycarbonylamino-α-(tert-butylaminomethyl)-benzyl alcohol 1/2 fumarate] has an ED50 [1, 6] of 0.063 mg/kg.
